In PMC10374582, “A BAHD-type acyltransferase concludes the biosynthetic pathway of non-bitter glycoalkaloids in ripe tomato fruit” (Nature Communications, 2023):

Experiments:
[1] = system: C[C@@H]1CNC2(O[C@H]3C[C@H]4[C@@H]5CC[C@H]6C[C@@H](O[C@@H]7O[C@H](CO)[C@H](O[C@@H]8O[C@H](CO)[C@@H](O)[C@H](O[C@@H]9OC[C@@H](O)[C@H](O)[C@H]9O)[C@H]8O[C@@H]8O[C@H](CO)[C@@H](O)[C@H](O)[C@H]8O)[C@H](O)[C@H]7O)CC[C@]6(C)[C@H]5CC[C@]4(C)[C@H]3[C@@H]2C)C(O)C1; test: LC-MS steady-state kinetics; format: biochemical, Solanum lycopersicum; settings: 500 µM acetyl CoA, pH 7.5, 30 °C
Description: (§1) LC-MS steady-state kinetics on SlGAME36 | higher catalytic efficiency with hydroxytomatine (native substrate from tomato | hydroxysolamargine (SGA substrate from eggplant | preferred specificity toward acetyl CoA over butyryl CoA

SlGAME40 = biological target: T1, SlGAME40 (Solanum lycopersicum, UniProt P10967); test: LC-MS product detection, sequential one-tube assay; format: biochemical; settings: acetoxytomatine formed in situ by GAME31 and GAME36; α-ketoglutarate, ascorbate, Fe2+; pH 7.5, 30 °C
T1 construct: gene ACO3; purified recombinant from E. coli

SlGAME36 = biological target: T2, SlGAME36 (Solanum lycopersicum, UniProt A0A3Q7HQH1); test: LC-MS steady-state kinetics; format: biochemical; settings: pH 7.5, 30 °C
T2 construct: gene LOC101247356; pET28/pET28b, E. coli BL21 (DE3), Ni-NTA purified His-tagged protein
Description: as §1

Compound: SlGAME36 (Solanum lycopersicum)
- Km [1]: 14.43 µM
- kcat [1]: 60.25 s⁻¹

Compound: CC(=O)OC1C[C@H](C)CNC12O[C@H]1C[C@H]3[C@@H]4CC[C@H]5C[C@@H](O[C@@H]6O[C@H](CO)[C@H](O[C@@H]7O[C@H](CO)[C@@H](O)[C@H](O[C@@H]8OC[C@@H](O)[C@H](O)[C@H]8O)[C@H]7O[C@@H]7O[C@H](CO)[C@@H](O)[C@H](O)[C@H]7O)[C@H](O)[C@H]6O)CC[C@]5(C)[C@H]4CC[C@]3(C)[C@H]1[C@@H]2C (stereo partly drawn) [acetoxytomatine]
- LC-MS product detection, sequential one-tube assay (SlGAME40): Sequential assays produced explicitly the expected pathway intermediates

Compound: CC(=O)SCCNC(=O)CCNC(=O)[C@H](O)C(C)(C)COP(=O)(O)OP(=O)(O)OC[C@H]1O[C@@H](n2cnc3c(N)ncnc32)[C@H](O)[C@@H]1OP(=O)(O)O [acetyl CoA]
- Km (SlGAME36; 100 µM hydroxytomatine): 24.2 µM

Compound: hydroxysolamargine
- Km (SlGAME36; 500 µM acetyl CoA): 7.89 µM

Compound: CCCC(=O)SCCNC(=O)CCNC(=O)[C@H](O)C(C)(C)COP(=O)(O)OP(=O)(O)OC[C@H]1O[C@@H](n2cnc3c(N)ncnc32)[C@H](O)[C@@H]1OP(=O)(O)O [butyryl CoA]
- Km (SlGAME36; 100 µM hydroxytomatine): 60.4 µM
